Laboratory results published in patent US20180228827A1, “FIXED-DOSE COMBINATIONS OF ANTIVIRAL COMPOUNDS” (MERCK SHARP & DOHME CORP., priority 2015, published 2018).

Assay: pH-dependent solubility profile of Compound II
Type: physicochemical
Conditions: particularly between pH 1-4

solubility profile: sharp pH-dependent solubility profile
Compound: COC(=O)N[C@H](C(=O)N1CCC[C@H]1c1ncc(-c2cc(F)c3c(c2)O[C@@H](c2cnc(C4CC4)s2)n2c-3cc3cc(-c4cnc([C@@H]5CCCN5C(=O)[C@@H](NC(=O)OC)C(C)C)[nH]4)ccc32)[nH]1)C(C)C [Compound II, dimethyl ((2S,2′S)-((2S,2′S)-2,2′-(5,5′-((S)-6-(2-cyclopropylthiazol-5-yl)-1-fluoro-6H-benzo[5,6][1,3]oxazino[3,4-a]indole-3,10-diyl)bis(1H-imidazole-5,2-diyl))bis(pyrrolidine-2,1-diyl))bis(3-methyl-1-oxobutane-2,1-diyl))dicarbamate]
